Measurements reported in patent publication US20240425496A1, “AZETIDINYL PYRIMIDINES AND USES THEREOF” (Aerie Pharmaceuticals, Inc., priority 2021, published 2024).

Legend:
JAK1 = JAK1 (Homo sapiens (Human), UniProt P23458); experiment: JAK kinase assay (KINASE-GLO luminescent), JAK1 enzyme; type: biochemical; settings: JAK1 enzyme 10 nM, Abl peptide substrate
Protocol: (§1) All compounds were initially prepared as 10 mM stocks in anhydrous dimethylsulfoxide (DMSO). […] Test compounds were then serially diluted 1:5 in DMSO for an 11-point concentration response and further diluted in the assay buffer bringing all compound concentrations to a final range of 100 μM to 10 μM in 2.5% DMSO. […] The reaction was initiated by the addition of 10 μL of 4× stock solution ATP (2 μM). Reactions were thoroughly mixed manually, covered, and allowed to incubate at room temperature for 75 min. Protein kinase activity was quantitated using Promega's KINASE-GLO™ luminescent Kinase Assay Kit according to the manufacturer's directions. ATP concentrations remaining in Test wells following the termination of the enzymatic reaction were compared against control wells containing equivalent amounts of DMSO containing no inhibitor (CTRL). […] Percent of Control (POC) values were determined for each concentration of compound tested according to the equation: […]
(§2) IC50 values were calculated using the following 4-parameter logistic curve-fitting algorithm:
(§3) Compounds were prepared in the exact same manner as described in the ROCK Kinase Assay with the exception to the substrate and enzyme. […] All other steps and solutions remain identical to the ROCK Kinase Assay above.

TYK2 = TYK2 (Homo sapiens (Human), UniProt P29597); experiment: JAK kinase assay (KINASE-GLO luminescent), TYK2 enzyme; type: biochemical; settings: TYK2 enzyme 10 nM, Abl peptide substrate
TYK2, sequence (P29597 whole entry, species assumed): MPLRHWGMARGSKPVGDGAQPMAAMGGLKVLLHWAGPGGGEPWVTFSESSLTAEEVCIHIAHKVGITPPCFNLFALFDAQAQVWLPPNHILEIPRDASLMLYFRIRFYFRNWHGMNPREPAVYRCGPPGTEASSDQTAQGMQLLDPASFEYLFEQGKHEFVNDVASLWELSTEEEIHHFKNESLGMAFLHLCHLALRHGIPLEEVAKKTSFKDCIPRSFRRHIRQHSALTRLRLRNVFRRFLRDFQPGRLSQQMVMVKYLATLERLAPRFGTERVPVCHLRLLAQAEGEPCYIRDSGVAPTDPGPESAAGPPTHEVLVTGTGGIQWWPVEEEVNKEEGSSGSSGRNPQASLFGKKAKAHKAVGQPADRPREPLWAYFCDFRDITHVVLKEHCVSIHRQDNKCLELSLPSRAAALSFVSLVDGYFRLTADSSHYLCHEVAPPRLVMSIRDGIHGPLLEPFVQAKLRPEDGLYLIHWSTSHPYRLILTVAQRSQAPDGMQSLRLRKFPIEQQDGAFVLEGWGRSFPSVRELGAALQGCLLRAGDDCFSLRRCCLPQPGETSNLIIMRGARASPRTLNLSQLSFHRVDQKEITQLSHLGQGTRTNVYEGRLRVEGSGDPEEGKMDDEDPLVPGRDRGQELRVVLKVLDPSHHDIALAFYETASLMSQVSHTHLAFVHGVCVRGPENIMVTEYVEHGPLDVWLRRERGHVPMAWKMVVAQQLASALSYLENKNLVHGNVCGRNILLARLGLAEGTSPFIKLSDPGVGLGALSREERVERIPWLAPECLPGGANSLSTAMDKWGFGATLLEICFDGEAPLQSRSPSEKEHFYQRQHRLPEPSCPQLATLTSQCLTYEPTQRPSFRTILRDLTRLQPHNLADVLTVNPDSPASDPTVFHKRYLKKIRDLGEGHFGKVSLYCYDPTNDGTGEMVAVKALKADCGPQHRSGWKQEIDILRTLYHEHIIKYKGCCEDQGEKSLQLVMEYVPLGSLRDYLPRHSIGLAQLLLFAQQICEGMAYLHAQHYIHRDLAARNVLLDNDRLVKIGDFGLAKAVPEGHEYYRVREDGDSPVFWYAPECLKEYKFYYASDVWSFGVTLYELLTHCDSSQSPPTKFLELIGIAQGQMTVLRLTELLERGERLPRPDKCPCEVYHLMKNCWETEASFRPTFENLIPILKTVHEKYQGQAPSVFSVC
Protocol: as §1, §2, §3

JAK1, sequence (P23458 whole entry, species assumed): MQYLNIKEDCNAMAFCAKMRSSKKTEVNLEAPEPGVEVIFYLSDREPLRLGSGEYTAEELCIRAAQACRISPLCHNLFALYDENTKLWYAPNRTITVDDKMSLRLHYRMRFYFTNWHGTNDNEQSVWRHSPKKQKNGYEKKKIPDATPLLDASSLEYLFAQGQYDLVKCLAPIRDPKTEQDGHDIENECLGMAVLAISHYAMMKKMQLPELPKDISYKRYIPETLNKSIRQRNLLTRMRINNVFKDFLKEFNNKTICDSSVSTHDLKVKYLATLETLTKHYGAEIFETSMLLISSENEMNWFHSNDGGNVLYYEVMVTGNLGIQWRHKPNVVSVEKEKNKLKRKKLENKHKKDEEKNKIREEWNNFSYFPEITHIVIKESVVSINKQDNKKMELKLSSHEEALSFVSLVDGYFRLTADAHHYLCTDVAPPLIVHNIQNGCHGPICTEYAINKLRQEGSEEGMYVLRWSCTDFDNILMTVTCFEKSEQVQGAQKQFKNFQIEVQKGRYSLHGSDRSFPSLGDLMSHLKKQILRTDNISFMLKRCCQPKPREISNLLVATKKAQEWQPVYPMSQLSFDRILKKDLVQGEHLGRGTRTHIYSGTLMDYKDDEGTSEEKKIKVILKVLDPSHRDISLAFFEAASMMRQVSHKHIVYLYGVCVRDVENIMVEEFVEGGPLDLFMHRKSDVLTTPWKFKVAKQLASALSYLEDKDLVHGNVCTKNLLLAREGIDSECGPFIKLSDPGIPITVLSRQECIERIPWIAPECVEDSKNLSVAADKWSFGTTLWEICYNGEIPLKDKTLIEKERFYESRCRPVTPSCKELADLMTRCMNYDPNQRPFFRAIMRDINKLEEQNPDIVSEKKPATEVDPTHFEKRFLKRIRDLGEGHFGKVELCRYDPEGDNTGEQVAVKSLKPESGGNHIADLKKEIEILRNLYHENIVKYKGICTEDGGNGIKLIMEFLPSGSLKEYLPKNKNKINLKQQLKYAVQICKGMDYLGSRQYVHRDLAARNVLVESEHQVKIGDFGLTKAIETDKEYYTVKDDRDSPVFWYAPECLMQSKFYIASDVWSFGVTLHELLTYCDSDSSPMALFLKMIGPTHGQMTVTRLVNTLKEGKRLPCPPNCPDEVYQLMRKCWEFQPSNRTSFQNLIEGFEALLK

Structure (SMILES)	IC50 (JAK1) [nM]	IC50 (TYK2) [nM]
Cc1cc(Nc2ncc(C)c(N3CC(CC#N)(N4CCN(C5CC5)CC4)C3)n2)sn1 [E54]	< 10	< 10
Cc1cc(Nc2ncc(C)c(N3CC(CC#N)(N4CCN(C(C)C)CC4)C3)n2)sn1 [E55]	< 50	< 50
Cc1cc(Nc2ncc(C)c(N3CC(CC#N)(N4CCN(CCF)CC4)C3)n2)sn1 [E55a]	< 10	< 10
Cc1cc(Nc2ncc(C)c(N3CC(CC#N)(N4CCN5CCC[C@@H]5C4)C3)n2)sn1 [E61a]	< 50	< 50
Cc1cc(Nc2ncc(C)c(N3CC(CC#N)(N4CCN5CCC[C@H]5C4)C3)n2)sn1 [E62a]	< 50	< 50
C#CCC1(O)CN(c2nc(Nc3cc(C)ns3)ncc2C)C1 [E63a]	< 100	< 50
Cc1cc(Nc2ncc(C)c(N3CC(CC#N)(N4CCN(C5CCC5)CC4)C3)n2)sn1 [E64a]	< 10	< 10
CCOC(=O)CC1(N2CCCCC2)CN(c2nc(Nc3cc(C)ns3)ncc2C)C1 [E65a]	< 1000	< 50
Cc1cc(Nc2ncc(C)c(N3CC(CCO)(N4CCCCC4)C3)n2)sn1 [E66a]	< 50	< 10
Cc1cc(Nc2ncc(C)c(N3CC(CC#N)(N4CCN5C[C@H](F)C[C@H]5C4)C3)n2)sn1 [E67a]	< 10	< 10
Cc1cc(Nc2ncc(C)c(N3CC(CC#N)(NCC4CN(C)C4)C3)n2)sn1 [E68a]	< 500	< 500
COC1CCN(C2(CC#N)CN(c3nc(Nc4cc(C)ns4)ncc3C)C2)CC1 [E69a]	< 10	< 10
Cc1cc(Nc2ncc(C)c(N3CC(CC#N)(N4CCN5C[C@@H](F)C[C@@H]5C4)C3)n2)sn1 [E70a]	< 20	< 10
CO[C@H]1C[C@H]2CN(C3(CC#N)CN(c4nc(Nc5cc(C)ns5)ncc4C)C3)CCN2C1 [E71a]	< 10	< 10
CO[C@@H]1C[C@H]2CN(C3(CC#N)CN(c4nc(Nc5cc(C)ns5)ncc4C)C3)CCN2C1 [E72a]	< 10	< 10
Cc1cc(Nc2ncc(C)c(N3CC(CC#N)(N4CCN5CCN(C)CC5C4)C3)n2)sn1 (stereo not shown) [E73a]	< 100	< 100
Cc1cc(Nc2ncc(F)c(N3CC(CC#N)(N4CCCCC4)C3)n2)sn1 [E74a]	< 500	< 20
COCCN1CCN(C2(CC#N)CN(c3nc(Nc4cc(C)ns4)ncc3C)C2)CC1 [E75]	< 10	< 10
Cc1cc(Nc2ncc(C)c(N3CC(CC#N)(N4CCN5C[C@H](F)C[C@@H]5C4)C3)n2)sn1 [E75a]	< 50	< 10
Cc1cc(Nc2ncc(C)c(N3CC(CC#N)(N4CCN5CC6(CC6)C[C@H]5C4)C3)n2)sn1 [E76a]	< 10	< 10
Cc1cc(Nc2ncc(C)c(N3CC(CC#N)(N4CCN5CCOC[C@@H]5C4)C3)n2)sn1 [E77a]	< 50	< 10

Structure (SMILES)	IC50 (JAK1) [nM]	IC50 (TYK2) [nM]
Cc1cc(Nc2ncc(C)c(N3CC(CC#N)(N4CCN5CCOC[C@H]5C4)C3)n2)sn1 [E78a]	< 10	< 10
Cc1cnc(Nc2ccc(C3(O)COC3)cc2)nc1N1CC(CC#N)(N2CCN(C)CC2)C1 [E79a]	< 50	< 10
Cc1cnc(Nc2cnn(C)c2)nc1N1CC(CC#N)(N2CCN(C)CC2)C1 [E80, 2-(1-(5-methyl-2-((1-methyl-1H-pyrazol-4-yl)amino)pyrimidin-4-yl)-3-(4-methylpiperazin-1-yl)azetidin-3-yl)acetonitrile]	< 20	< 20
Cc1cc(Nc2ncc(C)c(N3CC(CC#N)(N4CCN5CCCC[C@H]5C4)C3)n2)sn1 [E80a]	< 10	< 10
Cc1cnc(Nc2cnn(C)c2)nc1N1CC(CC#N)(N2CCC3(CC2)CC3(F)F)C1 [E81]	< 10	< 10
Cc1cc(Nc2ncc(C)c(N3CC(CC#N)(N4CCN5CC(F)(F)C[C@H]5C4)C3)n2)sn1 [E81a]	< 20	< 20
Cc1cnc(Nc2cnn(C)c2)nc1N1CC2(C1)CC2(F)F [E82]	< 20	< 20
Cc1cc(Nc2nccc(N3CC(CC#N)(N4CCN5CC6(CC6)C[C@H]5C4)C3)n2)sn1 [E82a]	< 50	< 20
Cc1cc(Nc2ncc(C)c(N3CC(CC#N)(N4CCN5CCC[C@]5(C)C4)C3)n2)sn1 [E83a]	< 100	< 50
Cc1cc(Nc2ncc(C)c(N3CC(CC#N)(N4CCN5CCC[C@@]5(C)C4)C3)n2)sn1 [E84a]	< 10	< 10
Cc1cc(Nc2ncc(C)c(N3CC(CC#N)(N4CCN5CCCC[C@@H]5C4)C3)n2)sn1 [E85a]	< 50	< 10
Cc1cc(Nc2ncc(C)c(N3CC(CC#N)(N4CCN5CC6CC5(C6)C4)C3)n2)sn1 [E86a]	< 100	< 20
Cc1cc(Nc2ncc(C)c(N3CC(CC#N)(N4CCCN5CCC[C@H]5C4)C3)n2)sn1 [E87a]	< 10	< 10
Cc1cc(Nc2ncc(C)c(N3CC(CC#N)(N4CC5(C4)CC5(F)F)C3)n2)sn1 [E88a]	< 10	< 10
Cc1cc(Nc2ncc(C)c(N3CC(CC#N)(N4CCN5CCC5C4)C3)n2)sn1 (stereo not shown) [E89a]	< 100	< 50
Cc1cc(Nc2ncc(C)c(N3CC(CC#N)(N4CCn5cccc5C4)C3)n2)sn1 [E90a]	< 10	< 10
Cc1cc(Nc2ncc(C)c(N3CC(CC#N)(N4CCn5c(cnc5C)C4)C3)n2)sn1 [E91a]	< 10	< 10
Cc1cc(Nc2ncc(C)c(N3CC(CC#N)(N4C[C@@H]5OCCO[C@@H]5C4)C3)n2)sn1 [E92a]	< 10	< 10
Cc1cc(Nc2ncc(C)c(N3CC(CC#N)(N4CCn5cncc5C4)C3)n2)sn1 [E93a]	< 10	< 10
Cc1cc(Nc2ncc(C)c(N3CC(CC#N)(N4CCN(C)C5CC54)C3)n2)sn1 (stereo not shown) [E94a]	< 10	< 10
Cc1cc(Nc2ncc(C)c(N3CC(CC#N)(N4CC5(CC5)C4)C3)n2)sn1 [E95a]	< 50	< 10

Structure (SMILES)	IC50 (JAK1) [nM]	IC50 (TYK2) [nM]
CCS(=O)(=O)C1CN(C2(CC#N)CN(c3nc(Nc4cc(C)ns4)ncc3C)C2)C1 [E96a]	< 100	< 50
Cc1cc(Nc2nccc(N3CC(CC#N)(N4CCN5C[C@H](F)C[C@H]5C4)C3)n2)sn1 [E97a]	< 50	< 10
Cc1cc(Nc2ncc(C)c(N3CC(CC#N)(N4CC5OCCN(C)C5C4)C3)n2)sn1 (stereo not shown) [E98a]	< 50	< 10
Cc1cc(Nc2ncc(C)c(N3CC(CC#N)(OC4CC5(CC5)C4)C3)n2)sn1 [E99a]	< 10	< 10
COC(=O)CC1(N2CCN3CCC[C@H]3C2)CN(c2nc(Nc3cc(C)ns3)ncc2C)C1 [E100a]	< 10	< 10
COc1cnc(Nc2cc(C)ns2)nc1N1CC(CC#N)(N2CCN3C[C@H](F)C[C@H]3C2)C1 [E101a]	< 10	< 10
Cc1cc(Nc2ncc(C3CC3)c(N3CC(CC#N)(N4CCN5C[C@H](F)C[C@H]5C4)C3)n2)sn1 [E102a]	< 10	< 10
Cc1cc(Nc2ncc(C)c(N3CC(CCO)(N4CCN5CCC[C@H]5C4)C3)n2)sn1 [E103a]	< 10	< 10
Cc1cc(Nc2ncc(C)c(N3CC(CC#N)(N4C[C@H]5CN(C)C[C@H]5C4)C3)n2)sn1 [E104a]	< 100	< 100
Cc1cc(Nc2ncc(C)c(N3CC(CC#N)(N4CC5CN(C)CC5C4)C3)n2)sn1 (stereo not shown) [E105a]	< 100	< 50
Cc1cc(Nc2ncc(C)c(N3CC(CC#N)(OC4CC5(C4)CC5(F)F)C3)n2)sn1 (stereo not shown) [E106a]	< 10	< 10
Cc1cc(Nc2ncc(C)c(N3CC(C4CC4)(N4CCCCC4)C3)n2)sn1 [E107a]	< 100	< 50
Cc1cc(Nc2ncc(C)c(N3CC(C4CC4)C3)n2)sn1 [E108a]	< 50	< 10
Cc1cc(Nc2ncc(C)c(N3CC(CC4CC4)C3)n2)sn1 [E109a]	< 50	< 10
Cc1cc(Nc2ncc(C)c(N3CC(N4CCN5C[C@H](F)C[C@H]5C4)C3)n2)sn1 [E110a]	< 50	< 10
Cc1cnc(Nc2ccc3c(c2)CN(C)C3)nc1N1CC(CC#N)(N2CCCC3(C2)CC3(F)F)C1 (stereo not shown) [E111, 2-(3-(1,1-difluoro-5-azaspiro[2.5]octan-5-yl)-1-(5-methyl-2-((2-methylisoindolin-5-yl)amino)pyrimidin-4-yl)azetidin-3-yl)acetonitrile]	< 10	< 10
Cc1cc(Nc2ncc(C)c(N3CC(CC#N)(N4CCN5CC(C)(C)C[C@H]5C4)C3)n2)sn1 [E111a]	< 10	< 10
Cc1cc(Nc2ncc(C)c(N3CC(CC#N)(N4CC5(C4)CC(F)(F)CO5)C3)n2)sn1 [E112a]	< 50	< 50
Cc1cnc(Nc2ccc3c(c2)CN(C)C3)nc1N1CC(CC#N)(N2CCC3(CC2)CC3(F)F)C1 [E113]	< 10	< 10
Cc1cc(Nc2ncc(C)c(N3CC(CCCl)(N4CCCCC4)C3)n2)sn1 [E113a]	< 10	< 10
